From patent US4877790A, “Quinazoline derivative, processes for its production, and cerebral dysfunction remedying agent comprising it as active ingredient” (Kanebo Limited, priority 1987, dated 1989)
Structures can show the parent of a compound that is named as a salt.

Legend:
[1] = test system: carbon dioxide-induced amnesia, male mice of the ddY strain; test: Anti-CO2-induced amnesia activity (one-trial passive avoidance response); assay type: in vivo; details: oral, Table 1
Method: Anti-CO2 -induced amnesia activity (the activity of remedying hypoxia-induced deficits in learning and memory):
Male mice of the ddY strain (body weight 20-30 g, 30 per group) were used. Anti-CO2 -induced amnesia activity was determined by using one-trial passive avoidance response as an index.
The experimental device consisted of two compartments, one illuminated and the other dark, with a guillotine door in the boundary of the two compartments permitting free passage of the mice through it.
In an acquisition trial, a mouse was placed in the illuminated compartment and allowed to enter the dark one. As soon as the mouse entered the dark compartment, the door was shut, and an electrical shock (0.5 mA, 0.2 sec.) was applied through the grid floor. Thus, the mouse was caused to learn that it receives an electric shock upon entering the dark room. In a retrieval trial, the mouse was again placed in the illuminated compartment 24 hours after the acquisition trial, and the time elapsed until it entered the dark compartment (response latency) was measured to an extent of 300 seconds at the longest. (One-trial passive avoidance response). […]

[2] = test system: complete ischemia by decapitation, male mice of the ddY strain; test: Anti-hypoxic activity: brain protection against complete ischemia by decapitation (gasping persistent time); assay type: in vivo; details: oral, Table 2
Method: (1) Brain protection against complete ischemia by decapitation:
Male mice of the ddY strain (body weight 20-25 g, 5 per group) were orally given the compound of the invention (dihydrochloride) dissolved in 1% gum arabic solution. One hour later, the mice were decapitated, and the time elapsed until a gasping-like mouth opening movement appearing after decapitation ceased (gasping persistent time) was measured, and compared with that obtained with the control group (the group to which 1% gum arabic solution was administered.

[3] = test system: normobaric hypoxia, male mice of the ddY strain; test: Anti-hypoxic activity: brain protection against normobaric hypoxia (survival time); assay type: in vivo; details: oral, Table 3
Method: (2) Brain protection against normobaric hydpoxia
Male mice of the ddY strain (body weight 20-25g, 5 per group) were orally administered with the compound of the invention (dihydrochloride) dissolved in a 1% gum arabic solution. One hour after the adminstration, the mouse was put in a transparent plastic container (capacity 27 liters) through which 100% nitrogen was passed at a rate of 80 liters/min. The time elasped until the animal died (the survival time) was measured, and compared with that obtained with the control group (the group to which 1% gum arabic solution was administered).

[4] = test system: formation of lipid peroxide by autoxidation (brain homogenate); test: Lipid peroxide formation inhibiting activity (antioxidant activity), MDA in brain homogenate; assay type: biochemical, rats; details: for Antioxidant activity (percent inhibition of autoxidation): 37° C. 30 minutes, n = 4, mean ± standard error
Method: Lipid peroxide formation inhibiting activity (antioxidant activity):
The effect of the test compound on the formation of lipid peroxide by autoxidation was determined by the amount of malondialdehyde (MDA) formed.
Rats were decapitated, and the cerebrum was taken out and homogenized with 4 ml, per gram of the cerebrum, of 50 mM phosphate saline-buffer (pH 7.4) and centrifuged (2800 rpm, 10 minutes). The supernatant was taken into a 10 ml test tube to obtain a brain homogenate. It was frozen at -70° C. and stored.
The brain homogenate was defrozen, and immediately then, diluted to 10-fold with the aforesaid phosphate saline-buffer. A 2 ml portion of the dilution was taken into a 10 ml test tube cooled with ice, and used to measure its antioxidant activity. Twenty microliters of an aqueous solution of the compound of this invention (dihydrochloride) was added. The amount of MDA immediately after the addition was measured as shown below (MDA0 time). The mixture was incubated at 37° C. for 30 minutes. […] After cooling with ice, the cooled mixture was centrifuged (2800 rpm, 10 minutes). To 1 ml of the supernatant, 0.5 ml of 0.5 % thiobarbituric acid solution dissolved in 50% acetic acid solution was added, and the mixture was heated at 100° C. for 15 minutes. After cooling with ice, the absorbance of the solution at 532 nm was measured, and the amount of MDA formed was determined (MDA test).
As a control, the amount of MDA (MDAcont) was determined as above.
The antioxidant activity of the compound of the invention was expressed in terms of percent inhibition of autoxidation on the brain homogenate. The calculation was based on the following equation. [formula]

[5] = test system: deficit of memory induced by scopolamine hydrobromide, male mice of the ddY strain; test: Anti-scopolamine-induced amnesia activity (one-trial passive avoidance response); assay type: in vivo; details: i.p. and p.o., Table 5
Method: Anti-scopolamine-induced amnesia activity:
Male mice of the ddY strain (body weight 20-25g, 20 per group) were used, and the activity of the test compound on deficit of memory induced by scopolamine hydrobromide (a muscarinic acetylcholine receptor antagonist) was examined using one-trial passive avoidance response as an index.
Using the same experimental device as in Test Example 1, the same acquisition trial and retrieval trial as in Test Example 1 were carried out (one-trial passive avoidance response.)
Scopolamine hydrobromide (1 mg/kg) was intraperitoneally (i.p.) administered to the animals 20 minutes before the acquisition trial. The compound of the invention (dihydrochloride) was dissolved in 1 % gum arabic solution, and intraperitoneally adminstered immediately after the acquisition trial, and orally (p.o.) administered 60 minutes before the acquisition trial.
A 1% solution of gum arabic was administered to the control group.

Structure (SMILES): C=CCN1CCN(c2nc(OCCCCC)c3ccccc3n2)CC1 [Compound of the invention (2HCl), 2-(4-allyl-l-piperazinyl)-4-pentyloxyquinazoline dihydrochloride]
- anti-carbon dioxide induced amnesia activity (in words) [1]: showed a significant anti-carbon dioxide induced amnesia activity
- activity of prolonging the gasping persistent time (in words) [2]: showed a significant activity of prolonging the gasping persistent time
- activity of prolonging the survival time (in words) [3]: showed a significant activity of prolonging the survival time
- Antioxidant activity (percent inhibition of autoxidation) ([4]; 10 μM): 6.4 ± 7.7%
- Antioxidant activity (percent inhibition of autoxidation) ([4]; 30 μM): 27.1 ± 6.8%
- Antioxidant activity (percent inhibition of autoxidation) ([4]; 100 μM): 77.9 ± 3.1%
- Antioxidant activity (percent inhibition of autoxidation) ([4]; 300 μM): 93.4 ± 2.2%
- activity of inhibiting formation of lipid peroxide (antioxidant activity) (in words) ([4]; Table 4): showed the activity of inhibiting formation of lipid peroxide
- anti-scopolamine-induced amnesia activity (in words) [5]: showed a significant anti-scopolamine-induced amnesia activity
